Source: patent publication US9676757B2, “Heterocyclic compounds as NaV channel inhibitors and uses thereof” (Merck Patent GmbH, priority 2014, dated 2017)
pIC50: −log10 of the molar value. Like-named read-outs stand apart in the source and are kept apart here.

Target: Nav1.6 (Homo sapiens, UniProt Q9UQD0)
Assay: Nav two-pulse protocol, IonWorks Quattro electrophysiology
Type: cell-based
Details: -120 mV to 0 mV, compound incubated 300 s
Procedure: Compound Plate Preparation
Supplied compounds were sent as Assay Ready Plates, with 2 μL per well of compound in DMSO at 300× the final assay concentrations as described above and in the project proposal. All assay plates are stored at in a −80° C. freezer.
On the day of the assay, 198 μL of external solution was added to the appropriate assay plate and mixed thoroughly. This provided a 1:100 dilution. A further 1:3 dilution occurred upon addition to the cells in the IonWorks, giving a 1:300 dilution in total.
On each assay plate, at least 8 wells were reserved for vehicle control (0.3% DMSO) and at least 8 wells for each positive control specific to the cell line tested. The positive controls were tested in an 8-point dose response with 3-fold dilutions to determine an IC50 value for each run. The positive control compounds are outlined below.
Ion Channel Positive Control & Concentrations
Nav1.6/1.2 Lidocaine: 8, 3-fold dilutions starting at 100 μM
Electrophysiological Recording Solutions
The solutions for recording currents were are follows:
Amphotericin B was used to obtain electrical access to the cell interior at a final concentration of 200 μg/ml in internal recording solution.
Experimental Protocols & Data Analysis
Nav currents were evoked by stepping from a holding potential of −120 mV to 0 mV for 2.5 s (pulse 1), followed by a 5 ms inter-pulse interval, and stepping from a holding potential of −120 mV to 0 mV for 20 ms (pulse 2). The voltage protocol was applied (Pre), compounds added, incubated for 300 seconds, and the voltage protocol was applied a final time (Post) on the IonWorks Quattro.
The parameters measured were the maximum inward current evoked on stepping to 0 mV from the 1st and 2nd pulse. All data were filtered for seal quality, seal drop, and current amplitude. The peak current amplitude (Peak) was calculated before (Pre) and after (Post) compound addition to the amount of block was assessed by dividing the Post-compound current amplitude by the Pre-compound current amplitude. These procedures were implemented for the 1st and 2nd pulse.

Nav1.6, sequence (Q9UQD0 whole entry): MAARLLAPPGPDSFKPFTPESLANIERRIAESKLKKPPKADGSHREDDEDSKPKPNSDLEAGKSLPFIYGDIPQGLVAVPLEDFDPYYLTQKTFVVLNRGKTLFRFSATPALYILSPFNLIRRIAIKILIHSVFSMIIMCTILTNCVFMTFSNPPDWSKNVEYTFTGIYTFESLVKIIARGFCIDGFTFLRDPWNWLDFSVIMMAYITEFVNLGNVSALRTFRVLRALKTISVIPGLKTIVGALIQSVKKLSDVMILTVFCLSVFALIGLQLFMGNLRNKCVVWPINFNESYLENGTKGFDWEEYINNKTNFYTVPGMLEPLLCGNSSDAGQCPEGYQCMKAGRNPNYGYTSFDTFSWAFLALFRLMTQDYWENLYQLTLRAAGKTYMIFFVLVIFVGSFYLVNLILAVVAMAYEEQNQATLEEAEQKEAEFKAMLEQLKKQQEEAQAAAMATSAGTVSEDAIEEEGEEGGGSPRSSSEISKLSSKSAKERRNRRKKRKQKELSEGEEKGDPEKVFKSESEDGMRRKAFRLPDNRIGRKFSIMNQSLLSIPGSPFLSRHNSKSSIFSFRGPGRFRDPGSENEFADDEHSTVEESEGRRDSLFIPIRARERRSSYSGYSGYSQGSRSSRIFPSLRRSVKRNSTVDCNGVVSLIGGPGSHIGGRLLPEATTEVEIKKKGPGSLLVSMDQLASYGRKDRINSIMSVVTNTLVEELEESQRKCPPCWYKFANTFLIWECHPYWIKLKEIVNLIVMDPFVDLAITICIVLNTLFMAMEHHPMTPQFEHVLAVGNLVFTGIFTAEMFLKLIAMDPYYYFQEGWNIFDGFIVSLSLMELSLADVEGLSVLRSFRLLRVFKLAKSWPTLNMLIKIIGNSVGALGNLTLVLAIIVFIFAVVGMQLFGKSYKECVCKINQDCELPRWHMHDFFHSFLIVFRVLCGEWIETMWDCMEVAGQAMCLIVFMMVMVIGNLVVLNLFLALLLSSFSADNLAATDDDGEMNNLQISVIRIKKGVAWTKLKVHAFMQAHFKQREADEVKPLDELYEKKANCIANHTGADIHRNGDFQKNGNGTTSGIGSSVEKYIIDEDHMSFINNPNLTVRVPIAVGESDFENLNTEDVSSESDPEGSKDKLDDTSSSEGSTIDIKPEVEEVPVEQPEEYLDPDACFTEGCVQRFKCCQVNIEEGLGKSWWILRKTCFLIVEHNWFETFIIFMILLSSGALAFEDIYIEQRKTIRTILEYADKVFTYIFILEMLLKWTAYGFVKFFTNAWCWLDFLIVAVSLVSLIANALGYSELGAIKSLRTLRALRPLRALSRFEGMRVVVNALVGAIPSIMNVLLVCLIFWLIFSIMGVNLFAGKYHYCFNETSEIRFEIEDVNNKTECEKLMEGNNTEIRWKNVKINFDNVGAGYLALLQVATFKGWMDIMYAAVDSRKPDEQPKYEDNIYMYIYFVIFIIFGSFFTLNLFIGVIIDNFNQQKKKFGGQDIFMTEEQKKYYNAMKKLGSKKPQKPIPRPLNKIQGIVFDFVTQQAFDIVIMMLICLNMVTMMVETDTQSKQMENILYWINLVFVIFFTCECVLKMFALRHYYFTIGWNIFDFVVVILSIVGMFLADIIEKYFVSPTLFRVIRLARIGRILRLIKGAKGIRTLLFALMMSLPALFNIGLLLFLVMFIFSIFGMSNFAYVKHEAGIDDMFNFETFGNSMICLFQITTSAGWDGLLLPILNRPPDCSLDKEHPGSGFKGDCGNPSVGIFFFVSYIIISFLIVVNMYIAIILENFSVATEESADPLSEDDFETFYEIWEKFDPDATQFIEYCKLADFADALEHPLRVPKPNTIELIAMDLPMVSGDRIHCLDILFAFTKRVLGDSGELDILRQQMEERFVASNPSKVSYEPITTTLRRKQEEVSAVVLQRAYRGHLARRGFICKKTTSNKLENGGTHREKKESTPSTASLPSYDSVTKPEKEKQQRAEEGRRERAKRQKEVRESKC

Compound	pIC50 (read-out: Nav1.6 Tonic)	pIC50 (read-out: Nav1.6 inac)
CC(C)COc1cccc(CN2CCC(COCc3ccccn3)C2)c1 (stereo not drawn) [Compound 35, 2-[1-(3-Isobutoxy-benzyl)-pyrrolidin-3-ylmethoxymethyl]-pyridine]	< 4.70	5.30 to 6.00
CC(C)OCc1cccc(CN2CCC(CNC(=O)c3ccccn3)C2)c1 (stereo not drawn) [Compound 36, Pyridine-2-carboxylic acid [1-(3-isopropoxymethyl-benzyl)-pyrrolidin-3-ylmethyl]-amide]	< 4.70	> 6.00
C[C@@]1(C(=O)NCc2ccccn2)CCN(Cc2cccc(Oc3ccccc3)c2)C1 [Compound 37, (R)-3-methyl-1-(3-phenoxybenzyl)-N-(pyridin-2-ylmethyl)pyrrolidine-3-carboxamide]	< 4.70	5.30 to 6.00
C[C@]1(C(=O)NCc2ccccn2)CCN(Cc2cccc(Oc3ccccc3)c2)C1 [Compound 38, (S)-3-methyl-1-(3-phenoxybenzyl)-N-(pyridin-2-ylmethyl)pyrrolidine-3-carboxamide]	< 4.70	< 5.30
CC1(C(=O)N2CCNCC2)CCN(Cc2cccc(Oc3ccccc3)c2)C1 (stereo not drawn) [Compound 39, [3-Methyl-1-(3-phenoxy-benzyl)-pyrrolidin-3-yl]-piperazin-1-yl-methanone]	< 4.70	5.30 to 6.00
CCNC(=O)C1(C)CCN(C(=O)c2cccc(Oc3ccccc3)c2)C1 (stereo not drawn) [Compound 40, 3-Methyl-1-(3-phenoxy-benzoyl)-pyrrolidine-3-carboxylic acid ethylamide]	4.70 to 5.00	> 6.00
CCNC(=O)C1(C)CCN(Cc2cccc(OC(F)(F)F)c2)C1 (stereo not drawn) [Compound 41, 3-Methyl-1-(3-trifluoromethoxy-benzyl)-pyrrolidine-3-carboxylic acid ethylamide]	4.70 to 5.00	> 6.00
CC(C)C[S+]([O-])c1cccc(CN2CCC(C(=O)NCc3ccccn3)C2)c1 (stereo not drawn) [Compound 42, 1-[3-(2-Methyl-propane-1-sulfinyl)-benzyl]-pyrrolidine-3-carboxylic acid (pyridin-2-ylmethyl)-amide]	< 4.70	< 5.30
Cc1cccc(Oc2cccc(CN3CCC(C(=O)NCc4ccccn4)C3)c2)c1 (stereo not drawn) [Compound 43, 1-(3-m-Tolyloxy-benzyl)-pyrrolidine-3-carboxylic acid (pyridin-2-ylmethyl)-amide]	< 4.70	< 5.30
O=C(NCc1ccccn1)C1CCN(Cc2cccc(Oc3ncccn3)c2)C1 (stereo not drawn) [Compound 44, 1-[3-(Pyrimidin-2-yloxy)-benzyl]-pyrrolidine-3-carboxylic acid (pyridin-2-ylmethyl)-amide]	< 4.70	< 5.30
Cc1cccc(Oc2cccc(CN3CCC(C)(C(=O)NCc4ccccn4)C3)c2)c1 (stereo not drawn) [Compound 45, 3-Methyl-1-(3-m-tolyloxy-benzyl)-pyrrolidine-3-carboxylic acid (pyridin-2-ylmethyl)-amide]	< 4.70	< 5.30
CC(C)CSc1cccc(CN2CCC(C(=O)OCc3ccccn3)C2)c1 (stereo not drawn) [Compound 46, 1-(3-Isobutylsulfanyl-benzyl)-pyrrolidine-3-carboxylic acid pyridin-2-ylmethyl ester]	< 4.70	5.30 to 6.00
CC(C)CS(=O)(=O)c1cccc(CN2CCC(C(=O)OCc3ccccn3)C2)c1 (stereo not drawn) [Compound 47, 1-[3-(2-Methyl-propane-1-sulfonyl)-benzyl]-pyrrolidine-3-carboxylic acid pyridin-2-ylmethyl ester]	< 4.70	5.30 to 6.00
CC(C)COc1cccc(CN2CCC(c3noc(-c4ccccn4)n3)C2)c1 (stereo not drawn) [Compound 48, 2-{3-[1-(3-Isobutoxy-benzyl)-pyrrolidin-3-yl]-[1,2,4]oxadiazol-5-yl}-pyridine]	< 4.70	5.30 to 6.00
COc1cccnc1-c1nc(C2CCN(Cc3cccc(OCC(C)C)c3)C2)no1 (stereo not drawn) [Compound 49, 2-{3-[1-(3-Isobutoxy-benzyl)-pyrrolidin-3-yl]-[1,2,4]oxadiazol-5-yl}-3-methoxy-pyridine]	< 4.70	5.30 to 6.00
CC(C)COc1cccc(CN2CCC(c3noc(-c4ncccc4F)n3)C2)c1 (stereo not drawn) [Compound 50, 3-Fluoro-2-{3-[1-(3-isobutoxy-benzyl)-pyrrolidin-3-yl]-[1,2,4]oxadiazol-5-yl}-pyridine]	< 4.70	< 5.30
Cc1cccnc1-c1nc(C2CCN(Cc3cccc(OCC(C)C)c3)C2)no1 (stereo not drawn) [Compound 51, 2-{3-[1-(3-Isobutoxy-benzyl)-pyrrolidin-3-yl]-[1,2,4]oxadiazol-5-yl}-3-methyl-pyridine]	< 4.70	5.30 to 6.00

Compound	pIC50 (read-out: Nav1.6 Tonic)	pIC50 (read-out: Nav1.6 inac)
COc1ccnc(-c2nc(C3CCN(Cc4cccc(OCC(C)C)c4)C3)no2)c1 (stereo not drawn) [Compound 52, 2-{3-[1-(3-Isobutoxy-benzyl)-pyrrolidin-3-yl]-[1,2,4]oxadiazol-5-yl}-4-methoxy-pyridine]	< 4.70	5.30 to 6.00
CC(C)COc1cccc(CN2CCC(c3noc(-c4cc(Cl)ccn4)n3)C2)c1 (stereo not drawn) [Compound 53, 4-Chloro-2-{3-[1-(3-isobutoxy-benzyl)-pyrrolidin-3-yl]-[1,2,4]oxadiazol-5-yl}-pyridine]	< 4.70	5.30 to 6.00
COc1ccc(-c2nc(C3CCN(Cc4cccc(OCC(C)C)c4)C3)no2)nc1 (stereo not drawn) [Compound 54, 2-{3-[1-(3-Isobutoxy-benzyl)-pyrrolidin-3-yl]-[1,2,4]oxadiazol-5-yl}-5-methoxy-pyridine]	< 4.70	5.30 to 6.00
Cc1ccc(-c2nc(C3CCN(Cc4cccc(OCC(C)C)c4)C3)no2)nc1 (stereo not drawn) [Compound 55, 2-{3-[1-(3-Isobutoxy-benzyl)-pyrrolidin-3-yl]-[1,2,4]oxadiazol-5-yl}-5-methyl-pyridine]	< 4.70	5.30 to 6.00
COc1cccc(-c2nc(C3CCN(Cc4cccc(OCC(C)C)c4)C3)no2)n1 (stereo not drawn) [Compound 56, 2-{3-[1-(3-Isobutoxy-benzyl)-pyrrolidin-3-yl]-[1,2,4]oxadiazol-5-yl}-6-methoxy-pyridine]	< 4.70	5.30 to 6.00
CC(C)COc1cccc(CN2CCC(c3noc(Cc4ccccn4)n3)C2)c1 (stereo not drawn) [Compound 57, 2-{3-[1-(3-Isobutoxy-benzyl)-pyrrolidin-3-yl]-[1,2,4]oxadiazol-5-ylmethyl}-pyridine]	< 4.70	5.30 to 6.00
CC(C)COc1cccc(CN2CCC(c3noc(-c4cc(Br)ccn4)n3)C2)c1 (stereo not drawn) [Compound 58, 4-Bromo-2-{3-[1-(3-isobutoxy-benzyl)-pyrrolidin-3-yl]-[1,2,4]oxadiazol-5-yl}-pyridine]	< 4.70	< 5.30
CC(C)COc1cccc(CN2CCC(c3noc(-c4ccc(F)cn4)n3)C2)c1 (stereo not drawn) [Compound 59, 5-Fluoro-2-{3-[1-(3-isobutoxy-benzyl)-pyrrolidin-3-yl]-[1,2,4]oxadiazol-5-yl}-pyridine]	< 4.70	< 5.30
CC(C)COc1cccc(CN2CCC(n3cc(-c4ccccn4)nn3)C2)c1 (stereo not drawn) [Compound 60, 2-{1-[1-(3-Isobutoxy-benzyl)-pyrrolidin-3-yl]-1H-[1,2,3]triazol-4-yl}-pyridine]	< 4.70	5.30 to 6.00
Cc1cccc(-c2cn(C3CCN(Cc4cccc(OCC(C)C)c4)C3)nn2)n1 (stereo not drawn) [Compound 61, 2-{1-[1-(3-Isobutoxy-benzyl)-pyrrolidin-3-yl]-1H-[1,2,3]triazol-4-yl}-6-methyl-pyridine]	< 4.70	< 5.30
COc1cccc(-c2cn(C3CCN(Cc4cccc(OCC(C)C)c4)C3)nn2)n1 (stereo not drawn) [Compound 62, 2-{1-[1-(3-Isobutoxy-benzyl)-pyrrolidin-3-yl]-1H-[1,2,3]triazol-4-yl}-6-methoxy-pyridine]	< 4.70	5.30 to 6.00
CC(C)COc1cccc(CN2CCC(n3cc(-c4cccc(Br)n4)nn3)C2)c1 (stereo not drawn) [Compound 63, 2-Bromo-6-{1-[1-(3-isobutoxy-benzyl)-pyrrolidin-3-yl]-1H-[1,2,3]triazol-4-yl}-pyridine]	< 4.70	< 5.30
CC(C)COc1cccc(CN2CCC(c3nnc(CO)o3)C2)c1 (stereo not drawn) [Compound 64, {5-[1-(3-Isobutoxy-benzyl)-pyrrolidin-3-yl]-[1,3,4]oxadiazol-2-yl}-methanol]	< 4.70	5.30 to 6.00
COc1ccccc1CNC(=O)C1CCN(Cc2cccc(Oc3ccccc3)c2)C1 (stereo not drawn) [Compound 65, 1-(3-Phenoxy-benzyl)-pyrrolidine-3-carboxylic acid 2-methoxy-benzylamide]	< 4.70	> 6.00
COc1ccc(CNC(=O)C2CCN(Cc3cccc(Oc4ccccc4)c3)C2)cc1 (stereo not drawn) [Compound 66, 1-(3-Phenoxy-benzyl)-pyrrolidine-3-carboxylic acid 4-methoxy-benzylamide]	4.70 to 5.00	> 6.00
O=C(NCc1ccc(OC(F)(F)F)cc1)C1CCN(Cc2cccc(Oc3ccccc3)c2)C1 (stereo not drawn) [Compound 67, 1-(3-Phenoxy-benzyl)-pyrrolidine-3-carboxylic acid 4-trifluoromethoxy-benzylamide]	4.70 to 5.00	> 6.00
